# Columns and labels:
# Format in all cases: in vivo
# [1] = tested on: Setaria viridis; assay: Field trial post-emergence in maize: SETVI
# Protocol: (§1) Herbicidal activity of herbicide compositions according to the first aspect of the present invention with regard to different types of unwanted vegetation was determined during trials performed on test fields (field trials). Individual compositions comprising pyridate and individual compositions comprising a defined 4-HPPD inhibitor are compared with a herbicide composition according to the invention comprising both pyridate and a defined 4-HPPD inhibitor. The expected activity of the combination of the active compounds pyridate and a defined 4-HPPD inhibitor is calculated according to above mentioned calculation method by Colby, in order to evaluate a synergistic effect between pyridate and a defined 4-HPPD inhibitor.
# (§2) Herbicidal activity was determined by applying herbicide compositions on emerged unwanted vegetation on fields where maize was cultivated. Pyridate and a defined 4-HPPD inhibitor were applied as a tank mixture by mixing these active compounds prior to use in a spray tank. The corresponding mixture was in the form of a spray liquor. Besides, spray liquors of individual compositions comprising pyridate and of individual compositions comprising a defined 4-HPPD inhibitor were used. Test plants of unwanted vegetation with a growth stage corresponding to BBCH 10-18 (according to the extended BBCH-scale) were sprayed with the active compound preparations such that particular desired amounts of active compounds are applied per unit area. Spray liquor was diluted with water to arrive at an application volume of 50 to 450 L/ha. At a specified number of days after application (DAA), the degree of damage to the unwanted vegetation is rated in % of plants of unwanted vegetation that were killed, which was assessed by visually controlling the plants.
# (§3) Example 1 concerns a herbicide composition comprising a combination of pyridate and mesotrione, which was applied post-emergence on unwanted vegetation on a field where maize was cultivated, according to the test conditions mentioned above.
# [2] = tested on: Papaver rhoeas; assay: Field trial post-emergence in maize: PAPRH; details: # = 1, g a.c./ha: PYR 300, MES 100, PYR + MES 300 + 90
# Protocol: as §1, §2
# [3] = tested on: Xanthium spinosum; assay: Field trial post-emergence in maize: XANSP; details: 7-14 DAA; # = 3; g a.c./ha: PYR 300, MES 100, PYR + MES 300 + 90
# Protocol: as §1
# (§4) Herbicidal activity was determined by applying herbicide compositions on emerged unwanted vegetation on fields where maize was cultivated. Pyridate and a defined 4-HPPD inhibitor were applied as a tank mixture by mixing these active compounds prior to use in a spray tank. The corresponding mixture was in the form of a spray liquor. […] At a specified number of days after application (DAA), the degree of damage to the unwanted vegetation is rated in % of plants of unwanted vegetation that were killed, which was assessed by visually controlling the plants.
# [4] = tested on: Persicaria maculosa; assay: Field trial post-emergence in maize: POLPE; details: for herbicidal effect (h.e.): g a.c./ha: PYR 300, MES 100, PYR + MES 300 + 90
# Protocol: as §1, §2
# [5] = tested on: Matricaria chamomilla; assay: Field trial post-emergence in maize: MATCH
# Protocol: as §1, §2, §3
# [6] = tested on: Poa annua; assay: Examples 6-8 herbicidal effect: POAAN; details: 7 DAA
# [7] = tested on: Hibiscus ternatus; assay: Field trial post-emergence in maize: HIBTR; details: 7-14 DAA; # = 2; g a.c./ha: PYR 300, MES 100, PYR + MES 300 + 90
# Protocol: as §1, §4
# [8] = tested on: Brassica napus (winter); assay: Field trial post-emergence in maize: BRSNW; details: # = 1, g a.c./ha: PYR 300, MES 100, PYR + MES 300 + 90
# Protocol: as §1, §2
# [9] = tested on: Geranium dissectum; assay: Examples 6-8 herbicidal effect: GERDI; details: 7 DAA
# [10] = tested on: Digitaria sanguinalis; assay: Field trial post-emergence in maize: DIGSA; details: g a.c./ha: PYR 300, MES 100, PYR + MES 300 + 90
# Protocol: as §1, §2
# [11] = tested on: Brassica rapa Canola cultivars; assay: Field trial post-emergence in maize: BRSRC; details: 13-14 DAA; # = 1; g a.c./ha: PYR 450, MES 144, PYR + MES 450 + 144
# Protocol: as §1, §2
# [12] = tested on: Setaria verticillata; assay: Field trial post-emergence in maize: SETVE
# Protocol: as §1, §2, §3
# [13] = tested on: Atriplex patula; assay: Field trial post-emergence in maize: ATXPA
# Protocol: as §1, §2, §3
# [14] = tested on: Kickxia elatine; assay: Field trial post-emergence in maize: KICEL
# Protocol: as §1, §2, §3
# [15] = tested on: Mercurialis annua; assay: Field trial post-emergence in maize: MERAN
# Protocol: as §1, §2, §3
# [16] = g a.c./ha: MES 50, PYR + SMO 300 + 800
# [17] = g a.c./ha: MES 80, PYR + MES 300 + 50
compound,measurement,setting,value
"CS(=O)(=O)c1ccc(C(=O)C2C(=O)CCCC2=O)c([N+](=O)[O-])c1 [MES, 2-(4-methylsulfonyl-2-nitrobenzoyl) cyclohexane-1,3-dione]",MES h.e.,[1]; SETVI 14-20 DAA 45 g a.c./ha,83%
same,MES h.e.,[1]; SETVI 14-20 DAA 90 g a.c./ha,92%
same,MES h.e.,[1]; SETVI 14-20 DAA 135 g a.c./ha,95%
same,MES h.e.,[1]; SETVI 24-31 DAA 45 g a.c./ha,72%
same,MES h.e.,[1]; SETVI 24-31 DAA 90 g a.c./ha,92%
same,MES h.e.,[1]; SETVI 24-31 DAA 135 g a.c./ha,95%
same,herbicidal effect (h.e.),[2]; 18-28 DAA,80%
same,herbicidal effect (h.e.),[2]; 31-48 DAA,89%
same,herbicidal effect (h.e.),[3],97%
same,herbicidal effect (h.e.),"[4]; 7-14 DAA, # = 3",91%
same,herbicidal effect (h.e.),"[4]; 31-48 DAA, # = 4",89%
same,MES h.e.,[4]; POLPE 14-20 DAA 45 g a.c./ha,83%
same,MES h.e.,[4]; POLPE 14-20 DAA 90 g a.c./ha,98%
same,MES h.e.,[4]; POLPE 14-20 DAA 135 g a.c./ha,98%
same,MES h.e.,[4]; POLPE 24-31 DAA 45 g a.c./ha,93%
same,MES h.e.,[5]; MATCH 14-20 DAA 45 g a.c./ha,53%
same,MES h.e.,[5]; MATCH 14-20 DAA 90 g a.c./ha,72%
same,MES h.e.,[5]; MATCH 14-20 DAA 135 g a.c./ha,81%
same,MES h.e.,[5]; MATCH 24-31 DAA 45 g a.c./ha,43%
same,MES h.e.,[5]; MATCH 24-31 DAA 90 g a.c./ha,77%
same,MES h.e.,[5]; MATCH 24-31 DAA 135 g a.c./ha,93%
same,herbicidal effect (h.e.),[6]; [16],0%
same,herbicidal effect (h.e.),[6]; [17],3%
same,herbicidal effect (h.e.),[7],62%
same,herbicidal effect (h.e.),[8]; 7-14 DAA,98%
same,herbicidal effect (h.e.),[8]; 18-28 DAA,99%
same,herbicidal effect (h.e.),[9]; [16],15%
same,herbicidal effect (h.e.),[9]; [17],15%
same,herbicidal effect (h.e.),"[10]; 7-14 DAA, # = 2",53%
same,herbicidal effect (h.e.),"[10]; 18-28 DAA, # = 2",47%
same,herbicidal effect (h.e.),"[10]; 31-48 DAA, # = 1",54%
same,herbicidal effect (h.e.),[11],88%
same,MES h.e.,[12]; SETVE 14-20 DAA 45 g a.c./ha,21%
same,MES h.e.,[12]; SETVE 14-20 DAA 90 g a.c./ha,41%
same,MES h.e.,[12]; SETVE 14-20 DAA 135 g a.c./ha,55%
same,MES h.e.,[12]; SETVE 24-31 DAA 45 g a.c./ha,31%
same,MES h.e.,[12]; SETVE 24-31 DAA 90 g a.c./ha,37%
same,MES h.e.,[12]; SETVE 24-31 DAA 135 g a.c./ha,58%
same,MES h.e.,[13]; ATXPA 24-31 DAA 90 g a.c./ha,97%
same,MES h.e.,[13]; ATXPA 24-31 DAA 135 g a.c./ha,97%
same,MES h.e.,[14]; KICEL 14-20 DAA 45 g a.c./ha,0%
same,MES h.e.,[14]; KICEL 14-20 DAA 90 g a.c./ha,8%
same,MES h.e.,[14]; KICEL 14-20 DAA 135 g a.c./ha,0%
same,MES h.e.,[14]; KICEL 24-31 DAA 45 g a.c./ha,0%
same,MES h.e.,[14]; KICEL 24-31 DAA 90 g a.c./ha,0%
same,MES h.e.,[14]; KICEL 24-31 DAA 135 g a.c./ha,0%
same,MES h.e.,[15]; MERAN 14-20 DAA 45 g a.c./ha,95%
same,MES h.e.,[15]; MERAN 24-31 DAA 45 g a.c./ha,70%

# From patent publication US12396459B2, “Synergistically effective herbicide composition comprising pyridate and at least one defined 4-HPPD inhibitor” (BELCHIM CROP PROTECTION NV, priority 2018, dated 2025)
